Values joined by “and” are separate entries in the source; they are usually repeats but may differ in a detail not shown here. Equal values may be shown once. Inconclusive results and toxic doses are left out. Cut-off read from the data, not from the text of the source: active = T/C of 150% or more; inactive = T/C below 125%.
Tested on: L1210 leukemia ip in BDF1 mice, survival T/C
Experiment: NCI In Vivo Anticancer Drug Screen. Data for tumor model L1210 Leukemia (intraperitoneal) in B6D2F1 (BDF1) mice
Conditions: endpoint: mean survival time, higher = longer survival
Procedure, shortened: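 Transplantable tumor model; survival measured in treated vs vehicle control mice. Value = treated/control.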

[1] = dose: 50.0 mg/kg/injection, schedule: Q01DX001 (ip), vehicle: carboxymethylcellulose (CMC)
[2] = dose: 100.0 mg/kg/injection, schedule: Q01DX001 (ip), vehicle: carboxymethylcellulose (CMC)
[3] = dose: 200.0 mg/kg/injection, schedule: Q01DX001 (ip), vehicle: carboxymethylcellulose (CMC)
[4] = dose: 400.0 mg/kg/injection, schedule: Q01DX001 (ip), vehicle: carboxymethylcellulose (CMC)
[5] = dose: 200.0 mg/kg/injection, schedule: Q01DX009 (ip), vehicle: saline with Tween-80
[6] = dose: 100.0 mg/kg/injection, schedule: Q04DX003 (ip), vehicle: Klucel (hydroxypropylcellulose) (HPC)
[7] = dose: 200.0 mg/kg/injection, schedule: Q04DX003 (ip), vehicle: Klucel (hydroxypropylcellulose) (HPC)
[8] = dose: 400.0 mg/kg/injection, schedule: Q04DX003 (ip), vehicle: Klucel (hydroxypropylcellulose) (HPC)
[9] = dose: 100.0 mg/kg/injection, schedule: Q01DX009 (ip), vehicle: saline with Tween-80
[10] = dose: 100.0 mg/kg/injection, schedule: Q04DX003 (ip), vehicle: saline with Tween-80
[11] = dose: 200.0 mg/kg/injection, schedule: Q04DX003 (ip), vehicle: saline with Tween-80
[12] = dose: 400.0 mg/kg/injection, schedule: Q01DX009 (ip), vehicle: saline with Tween-80
[13] = dose: 400.0 mg/kg/injection, schedule: Q04DX003 (ip), vehicle: saline with Tween-80
[14] = dose: 100.0 mg/kg/injection, schedule: Q01DX009 (ip), vehicle: Klucel (hydroxypropylcellulose) (HPC)
[15] = dose: 200.0 mg/kg/injection, schedule: Q01DX009 (ip), vehicle: Klucel (hydroxypropylcellulose) (HPC)
[16] = dose: 400.0 mg/kg/injection, schedule: Q01DX009 (ip), vehicle: Klucel (hydroxypropylcellulose) (HPC)
[17] = dose: 200.0 mg/kg/injection, schedule: Q04DX002 (ip), vehicle: Klucel (hydroxypropylcellulose) (HPC)
[18] = dose: 100.0 mg/kg/injection, schedule: Q01DX001 (ip), vehicle: saline
[19] = dose: 100.0 mg/kg/injection, schedule: Q04DX003 (ip), vehicle: saline
[20] = dose: 200.0 mg/kg/injection, schedule: Q04DX003 (ip), vehicle: saline

Measured: T/C

O=C(CN1CCCCC1)N1CCN(C(=O)CN2CCCCC2)CC1
inactive: dose: 44.0 mg/kg/injection, schedule: Q01DX001 (ip), vehicle: carboxymethylcellulose (CMC) 98 % of control and 100 % of control | [1] 103 % of control | dose: 67.0 mg/kg/injection, schedule: Q01DX001 (ip), vehicle: carboxymethylcellulose (CMC) 87 % of control and 91 % of control | [2] 96 % of control | dose: 150.0 mg/kg/injection, schedule: Q01DX001 (ip), vehicle: carboxymethylcellulose (CMC) 91 % of control | [3] 113 % of control | [4] 103 % of control

CCOC(=O)c1cc(Cl)cc(Cl)c1N=NN(C)C
inactive: dose: 50.0 mg/kg/injection, schedule: Q01DX009 (ip), vehicle: saline with Tween-80 102 % of control | [5] 102 % of control

COc1ccc(-c2cc(-c3ccccc3)[nH]c(=O)c2N(C)C)cc1
inactive: [2] 97 % of control | [3] 91 % of control | [4] 97 % of control

CC(=O)N(C)c1ccc(NC(=O)Nc2cc([N+](=O)[O-])ccc2F)cc1
inactive: [6] 91 % of control | [7] 97 % of control | [8] 92 % of control

Cc1cccnc1NS(=O)(=O)c1ccccc1
inactive: [9] 101 % of control | [10] 94 % of control | [5] 98 % of control | [11] 94 % of control | [12] 102 % of control | [13] 94 % of control

Cc1ccc(S(=O)(=O)Oc2ccc(I)cc2)cc1
inactive: [14] 107 % of control | [6] 100 % of control | [15] 98 % of control | [7] 105 % of control | [16] 103 % of control | [8] 97 % of control

CN=C(N/N=C(C)\C=N\NC(=NC)N(C)C)N(C)C
inactive: dose: 15.0 mg/kg/injection, schedule: Q01DX Z (ip), vehicle: saline 90 % of control | dose: 30.0 mg/kg/injection, schedule: Q01DX Z (ip), vehicle: saline 106 % of control | dose: 60.0 mg/kg/injection, schedule: Q01DX Z (ip), vehicle: saline 95 % of control and 98 % of control | dose: 120.0 mg/kg/injection, schedule: Q01DX Z (ip), vehicle: saline 97 % of control and 101 % of control | dose: 120.0 mg/kg/injection, schedule: Q01DX Z (oral), vehicle: saline 96 % of control | dose: 240.0 mg/kg/injection, schedule: Q01DX Z (ip), vehicle: saline 95 % of control | dose: 240.0 mg/kg/injection, schedule: Q01DX Z (oral), vehicle: saline 91 % of control | dose: 960.0 mg/kg/injection, schedule: Q01DX Z (oral), vehicle: saline 94 % of control

O=C(O)c1cc(F)ccc1F
inactive: dose: 100.0 mg/kg/injection, schedule: Q04DX002 (ip), vehicle: Klucel (hydroxypropylcellulose) (HPC) 97 % of control | [17] 108 % of control

CSc1ncnc2c1ncn2N(CC1CO1)C(C)=O (centres undefined)
inactive: dose: 100.0 mg/kg/injection, schedule: Q04DX002 (ip), vehicle: saline with Tween-80 91 % of control | dose: 200.0 mg/kg/injection, schedule: Q04DX002 (ip), vehicle: saline with Tween-80 91 % of control | dose: 400.0 mg/kg/injection, schedule: Q04DX002 (ip), vehicle: saline with Tween-80 95 % of control

CC1(Cl)C(=O)NN=C1c1ccc([N+](=O)[O-])cc1 (centres undefined)
inactive: [2] 102 % of control | [3] 102 % of control | [4] 105 % of control

NCCCN1CCCC1=O
inactive: [18] 98 % of control | dose: 200.0 mg/kg/injection, schedule: Q01DX001 (ip), vehicle: saline 101 % of control | dose: 400.0 mg/kg/injection, schedule: Q01DX001 (ip), vehicle: saline 98 % of control

COc1cc(C(=O)OCCN(C(C)C)C(C)C)cc(OC)c1OC
inactive: [19] 101 % of control | [20] 95 % of control

CCCCCCOC(N)=O
inactive: dose: 50.0 mg/kg/injection, schedule: Q01DX009 (ip), vehicle: Klucel (hydroxypropylcellulose) (HPC) 96 % of control | [14] 96 % of control | [6] 96 % of control | [15] 96 % of control | [7] 96 % of control

CCOC(=O)CC(=Nc1ccccc1OC)C(=O)OCC
inactive: [14] 97 % of control | [6] 105 % of control | [15] 98 % of control | [7] 98 % of control | [16] 91 % of control | [8] 107 % of control

c1ccc2c(c1)ccc1cc3cc4cc5c(ccc6ccccc65)cc4cc3cc12
inactive: dose: 50.0 mg/kg/injection, schedule: Q04DX002 (ip), vehicle: Klucel (hydroxypropylcellulose) (HPC) 93 % of control | [17] 90 % of control

O=C(O)C1CCC[N-]C1.O=C(O)C1CCC[N-]C1.[Cl][Pt+2][Cl] (centres undefined)
inactive: dose: 5.0 mg/kg/injection, schedule: Q01DX009 (ip), vehicle: saline with Tween-80 95 % of control | dose: 10.0 mg/kg/injection, schedule: Q01DX009 (ip), vehicle: saline with Tween-80 103 % of control | dose: 20.0 mg/kg/injection, schedule: Q01DX009 (ip), vehicle: saline with Tween-80 106 % of control

CCCCOC(c1ccccc1)N1CCCCC1 (centres undefined)
inactive: [3] 95 % of control

COc1cccc(CNC(C)(C)CO)c1
inactive: dose: 75.0 mg/kg/injection, schedule: Q01DX001 (ip), vehicle: saline 95 % of control | dose: 150.0 mg/kg/injection, schedule: Q01DX001 (ip), vehicle: saline 102 % of control | dose: 300.0 mg/kg/injection, schedule: Q01DX001 (ip), vehicle: saline 104 % of control

O=C(Nc1nc(Cl)nc(Cl)n1)N1CCOCC1
inactive: dose: 12.5 mg/kg/injection, schedule: Q04DX003 (ip), vehicle: saline with Tween-80 95 % of control | dose: 25.0 mg/kg/injection, schedule: Q01DX009 (ip), vehicle: saline with Tween-80 113 % of control | dose: 25.0 mg/kg/injection, schedule: Q04DX003 (ip), vehicle: saline with Tween-80 101 % of control

NNC(=O)c1nc(N)n[nH]1
inactive: [9] 98 % of control | [5] 95 % of control | [12] 109 % of control

COc1cc(C(C)=O)cc(OC)c1Oc1cc(OC)c(OC)c(OC)c1C(C)=O
inactive: [10] 95 % of control | [11] 97 % of control | [13] 101 % of control

CCCCCCCCC1SC1CCCCCCCC(=O)OCC1CS1 (centres undefined)
inactive: dose: 100.0 mg/kg/injection, schedule: Q01DX001 (ip), vehicle: other 101 % of control | dose: 200.0 mg/kg/injection, schedule: Q01DX001 (ip), vehicle: other 115 % of control | dose: 400.0 mg/kg/injection, schedule: Q01DX001 (ip), vehicle: other 93 % of control

O=C(O)CCCc1ccc(Br)cc1
inactive: [10] 96 % of control | [11] 92 % of control | [13] 93 % of control

N#C/C(=C/c1ccccc1)C(=O)O
inactive: [1] 87 % of control | [2] 96 % of control | [3] 107 % of control

CCCCOC(=O)c1ccc(NC(=O)Nc2ccccc2CC)cc1
inactive: [14] 102 % of control | [15] 109 % of control | [16] 94 % of control

N#CC(O)C(Br)(Br)Br (centres undefined)
inactive: dose: 5.0 mg/kg/injection, schedule: Q01DX001 (ip), vehicle: saline 97 % of control | dose: 10.0 mg/kg/injection, schedule: Q01DX001 (ip), vehicle: saline 92 % of control | dose: 20.0 mg/kg/injection, schedule: Q01DX001 (ip), vehicle: saline 101 % of control

CC1(C)OC2C(COC(=O)Oc3ccccc3)OC(n3cnc4c(=S)nc[nH]c43)C2O1 (centres undefined)
inactive: [9] 117 % of control | [6] 100 % of control | [7] 109 % of control

CC1C(=O)CC(=O)C1=O (centres undefined)
inactive: dose: 50.0 mg/kg/injection, schedule: Q01DX009 (ip), vehicle: saline sonified 104 % of control | dose: 100.0 mg/kg/injection, schedule: Q01DX009 (ip), vehicle: saline sonified 117 % of control | [19] 100 % of control | dose: 200.0 mg/kg/injection, schedule: Q01DX009 (ip), vehicle: saline sonified 104 % of control | [20] 100 % of control

Cc1ccc(Oc2ccc([N+](=O)[O-])cc2[N+](=O)[O-])cc1C
inactive: dose: 222.0 mg/kg/injection, schedule: Q01DX Z (ip), vehicle: methylcellulose (MC) 90 % of control | dose: 333.0 mg/kg/injection, schedule: Q01DX Z (ip), vehicle: methylcellulose (MC) 92 % of control | dose: 500.0 mg/kg/injection, schedule: Q01DX Z (ip), vehicle: methylcellulose (MC) 92 % of control

CC(=O)Nc1ccc(/C=N/NC(=O)c2cccc3ccccc23)cc1
inactive: [18] 86 % of control

Source: PubChem BioAssay AID248 (DTP/NCI, 2004)
